From the supplement of paper PMC10883282

Experiments:
Assay in all cases: relative viability vs DMSO control (72 h) (fraction); higher = more viable cells
KHOS-NP = tested on: KHOS-NP
Outline: (§1)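 Sarcoma cell lines in 384-well plates, seeded to reach 80–90% confluence, were given compound after 24 h and kept 72 h at 37 °C, 5% CO2, with 0.1% DMSO vehicle and a 5 µM positive control. Relative viability came from ATPLite as percent growth, averaged over up to triplicate wells. On the rescaled values, 1 equals full and 0 equals none.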

MES-SA = tested on: MES-SA
Outline: as §1

SW872 = tested on: SW872
Outline: as §1

A204 = tested on: A204
Outline: as §1

SW684 = tested on: SW684
Outline: as §1

SK-ES-1 = tested on: SK-ES-1
Outline: as §1

RD = tested on: RD
Outline: as §1

VA-ES-BJ = tested on: VA-ES-BJ
Outline: as §1

SYO-1 = tested on: SYO-1
Outline: as §1

HS729 = tested on: HS729
Outline: as §1

SK-LMS-1 = tested on: SK-LMS-1
Outline: as §1

G401 = tested on: G401
Outline: as §1

CCN(c1cc(-c2ccc(CN3CCOCC3)cc2)cc(C(=O)NCc2c(C)cc(C)[nH]c2=O)c1C)C1CCOCC1 [Tazemetostat]
Details | relative viability
A204, 0.00017 µM | 1.04
A204, 0.00051 µM | 1.09
A204, 0.00152 µM | 1.08
A204, 0.00457 µM | 1.07
A204, 0.01372 µM | 1.03
A204, 0.04115 µM | 1.069
A204, 0.1235 µM | 1.08
A204, 0.3704 µM | 1.08
A204, 1.111 µM | 1.08
A204, 3.333 µM | 1.09
A204, 10 µM | 1.05
G401, 0.00017 µM | 1.03
G401, 0.00051 µM | 1.01
G401, 0.00152 µM | 1
G401, 0.00457 µM | 1.049
G401, 0.01372 µM | 1.05
G401, 0.04115 µM | 1.04
G401, 0.1235 µM | 1
G401, 0.3704 µM | 0.999
G401, 1.111 µM | 1.01
G401, 3.333 µM | 1.02
G401, 10 µM | 1.01
HS729, 0.00017 µM | 1.04
HS729, 0.00051 µM | 1.05
HS729, 0.00152 µM | 1.03
HS729, 0.00457 µM | 1.05
HS729, 0.01372 µM | 1.04
HS729, 0.04115 µM | 1.01
HS729, 0.1235 µM | 0.98
HS729, 0.3704 µM | 1
HS729, 1.111 µM | 0.938
HS729, 3.333 µM | 0.932
HS729, 10 µM | 0.892
KHOS-NP, 0.00017 µM | 1.05
KHOS-NP, 0.00051 µM | 1.06
KHOS-NP, 0.00152 µM | 1.06
KHOS-NP, 0.00457 µM | 1.07
KHOS-NP, 0.01372 µM | 1.04
KHOS-NP, 0.04115 µM | 1.04
KHOS-NP, 0.1235 µM | 1.015
KHOS-NP, 0.3704 µM | 0.997
KHOS-NP, 1.111 µM | 0.98
KHOS-NP, 3.333 µM | 0.998
KHOS-NP, 10 µM | 0.934
MES-SA, 0.00017 µM | 1
MES-SA, 0.00051 µM | 0.988
MES-SA, 0.00152 µM | 0.9899
MES-SA, 0.00457 µM | 0.986
MES-SA, 0.01372 µM | 0.977
MES-SA, 0.04115 µM | 0.998
MES-SA, 0.1235 µM | 1
MES-SA, 0.3704 µM | 0.942
MES-SA, 1.111 µM | 0.933
MES-SA, 3.333 µM | 0.926
MES-SA, 10 µM | 0.874
RD, 0.00017 µM | 0.988
RD, 0.00051 µM | 1
RD, 0.00152 µM | 1.04
RD, 0.00457 µM | 1.04
RD, 0.01372 µM | 1.05
RD, 0.04115 µM | 1.03
RD, 0.1235 µM | 1.06
RD, 0.3704 µM | 1.03
RD, 1.111 µM | 1.04
RD, 3.333 µM | 1.04
RD, 10 µM | 1.03
SK-ES-1, 0.00017 µM | 1.03
SK-ES-1, 0.00051 µM | 1.01
SK-ES-1, 0.00152 µM | 0.982
SK-ES-1, 0.00457 µM | 0.993
SK-ES-1, 0.01372 µM | 0.972
SK-ES-1, 0.04115 µM | 1.03
SK-ES-1, 0.1235 µM | 1.009
SK-ES-1, 0.3704 µM | 0.998
SK-ES-1, 1.111 µM | 0.991
SK-ES-1, 3.333 µM | 0.961
SK-ES-1, 10 µM | 0.995
SK-LMS-1, 0.00017 µM | 0.996
SK-LMS-1, 0.00051 µM | 1.02
SK-LMS-1, 0.00152 µM | 0.981
SK-LMS-1, 0.00457 µM | 1
SK-LMS-1, 0.01372 µM | 0.997
SK-LMS-1, 0.04115 µM | 1.03
SK-LMS-1, 0.1235 µM | 0.969
SK-LMS-1, 0.3704 µM | 0.9897
SK-LMS-1, 1.111 µM | 0.976
SK-LMS-1, 3.333 µM | 0.969
SK-LMS-1, 10 µM | 0.938
SW684, 0.00017 µM | 1.05
SW684, 0.00051 µM | 1.092
SW684, 0.00152 µM | 1.11
SW684, 0.00457 µM | 1.1
SW684, 0.01372 µM | 1.12
SW684, 0.04115 µM | 1.12
SW684, 0.1235 µM | 1.12
SW684, 0.3704 µM | 1.11
SW684, 1.111 µM | 1.12
SW684, 3.333 µM | 1.14
SW684, 10 µM | 1.1
SW872, 0.00017 µM | 1.04
SW872, 0.00051 µM | 1.07
SW872, 0.00152 µM | 1.07
SW872, 0.00457 µM | 1.072
SW872, 0.01372 µM | 1.066
SW872, 0.04115 µM | 1.08
SW872, 0.1235 µM | 1.05
SW872, 0.3704 µM | 1.06
SW872, 1.111 µM | 1.02
SW872, 3.333 µM | 1.03
SW872, 10 µM | 1.02
SYO-1, 0.00017 µM | 1.03
SYO-1, 0.00051 µM | 1
SYO-1, 0.00152 µM | 1.02
SYO-1, 0.00457 µM | 1
SYO-1, 0.01372 µM | 0.994
SYO-1, 0.04115 µM | 1.006
SYO-1, 0.1235 µM | 1
SYO-1, 0.3704 µM | 0.95
SYO-1, 1.111 µM | 0.953
SYO-1, 3.333 µM | 0.915
SYO-1, 10 µM | 0.873
VA-ES-BJ, 0.00017 µM | 1.038
VA-ES-BJ, 0.00051 µM | 1.046
VA-ES-BJ, 0.00152 µM | 1.05
VA-ES-BJ, 0.00457 µM | 1.05
VA-ES-BJ, 0.01372 µM | 1.034
VA-ES-BJ, 0.04115 µM | 1.06
VA-ES-BJ, 0.1235 µM | 1.06
VA-ES-BJ, 0.3704 µM | 1.07
VA-ES-BJ, 1.111 µM | 1.06
VA-ES-BJ, 3.333 µM | 1.08
VA-ES-BJ, 10 µM | 1.07
